In patent US6753348B2, “BTK inhibitors and methods for their identification and use” (Parker Hughes Institute, priority 1998, dated 2004):

System: fetal liver derived human mast cells
Experiment: IgE/anti-IgE stimulated leukotriene C4 release, fetal liver derived human mast cells
Type: cell-based
Details: 100 μM, 30 min before anti-IgE challenge
Description: FIG. 27: Effect of LFM and LFM-A8 on IgE receptor/Fc epsilon RI-mediated human mast cell leukotriene C4 release. IgE sensitized fetal liver derived human mast cells were stimulated by challenging with anti-IgE. To study the effect of the test compounds, mast cells were incubated with vehicle or 100 μM LFM or LFM-A8 prior to challenge with anti-IgE. Leukotriene C4 levels were measured in cell-free supernatants by ELISA. Vehicle treated 10^6 mast cells released 12.5±2.2 ng leukotriene C4. The results are expressed as percent of vehicle-treated controls (N=4). The data points represent the mean±SEM values. *P<0.05 compared to vehicle-treated control, as determined by Student's t test.
Mast Cell Cultures. RBL-2H3 mast cells were a gift from Dr. Reuben P. Siraganian (Laboratory of Microbiology and Immunology, National Institute of Dental Research, National Institute of Health). […]
We next sought to determine the effect of LFM-A8 on IgE/FcεRI-mediated human mast cell leukotriene C4 release and compare its potency with that of LFM. […] The Fc[…] receptors of fetal liver-derived human mast cells were crosslinked with anti-IgE and the resulting mast cell leukotriene C4 release was quantitated by ELISA (Malaviya, R. and Abraham, S. N., (1995) Methods Enzymol, 253, 27-43).

CC(O)=C(C#N)C(=O)Nc1cccc(C(F)(F)F)c1 [LFM-A8, α-Cyano-β-hydroxy-β-methyl-N-[3-(trifluoromethyl)phenyl]-propenamide]
leukotriene C4 release from IgE/anti-IgE-stimulated human mast cells: significantly inhibited
